Test results published in US5789431A, “Naphthoquinone antitumor compound and method” (The University of North Carolina at Chapel Hill, priority 1996, dated 1998).
Like-named read-outs stand apart in the source and are kept apart here.

Tests used:
human tumor cell lines = assay type: cell-based; details: for cytotoxicity against tumor cells (in words): cancer cell line panel; for GI50: Homo sapiens
M14 = experiment: in vitro melanoma cell growth inhibition (NCI screen)
SK-MEL-28 = experiment: as above
SK-MEL-5 = experiment: as above
UACC-62 = experiment: as above
CCRF-CEM = experiment: in vitro leukemia cell growth inhibition (NCI screen)
HL-60(TB) = experiment: as above
K-562 = experiment: as above
RPMI-8226 = experiment: as above
SR = experiment: as above
HCT-116 = experiment: in vitro colon cancer cell growth inhibition (NCI screen)
HCT-15 = experiment: as above
KM 12 = experiment: as above
SW 620 = experiment: as above
ACHN = experiment: in vitro renal cancer cell growth inhibition (NCI screen)
RXF-393 = experiment: as above
IGROV1 = experiment: in vitro ovarian cancer cell growth inhibition (NCI screen)
MCF7/ADR-RES = experiment: in vitro breast cancer cell growth inhibition (NCI screen)
BT-549 = experiment: as above
T-47D = experiment: as above
PC-3 = experiment: in vitro prostate cancer cell growth inhibition (NCI screen)
NCI-H522 = experiment: in vitro non-small cell lung cancer cell growth inhibition (NCI screen)
MALME-3M = experiment: in vitro melanoma cell growth inhibition (NCI screen)
UACC-257 = experiment: as above
U 251 = experiment: in vitro CNS cancer cell growth inhibition (NCI screen)
COLO-205 = experiment: in vitro colon cancer cell growth inhibition (NCI screen)
OVCAR-3 = experiment: in vitro ovarian cancer cell growth inhibition (NCI screen)
HOP-92 = experiment: in vitro non-small cell lung cancer cell growth inhibition (NCI screen)
NCI-H266 = experiment: as above
MOLT-4 = experiment: in vitro leukemia cell growth inhibition (NCI screen)
TK-10 = experiment: in vitro renal cancer cell growth inhibition (NCI screen)
MCF-7 = experiment: in vitro breast cancer cell growth inhibition (NCI screen)
MDA-MB-435 = experiment: as above
MDA-N = experiment: as above
NCI-H23 = experiment: in vitro non-small cell lung cancer cell growth inhibition (NCI screen)
LOX1MVI = experiment: in vitro melanoma cell growth inhibition (NCI screen)
M19-MEL = experiment: as above
SF-539 = experiment: in vitro CNS cancer cell growth inhibition (NCI screen)
SN12C = experiment: in vitro renal cancer cell growth inhibition (NCI screen)
OVCAR-4 = experiment: in vitro ovarian cancer cell growth inhibition (NCI screen); details: OVACR-4
NCI-H460 = experiment: in vitro non-small cell lung cancer cell growth inhibition (NCI screen)
SK-OV-3 = experiment: in vitro ovarian cancer cell growth inhibition (NCI screen)
SNB-75 = experiment: in vitro CNS cancer cell growth inhibition (NCI screen)
XF-498 = experiment: as above
HT 29 = experiment: in vitro colon cancer cell growth inhibition (NCI screen)
UO-31 = experiment: in vitro renal cancer cell growth inhibition (NCI screen)
[1] = cancer cell panel, general / most cell lines, read-out: logGI50 values in the cancer cell line panel (converted)

Row | Compound | cytotoxicity log GI50 (M14) | cytotoxicity log GI50 (SK-MEL-5) | cytotoxicity log GI50 (UACC-62) | cytotoxicity log GI50 (CCRF-CEM) | cytotoxicity log GI50 (HL-60(TB)) | cytotoxicity log GI50 (K-562) | cytotoxicity log GI50 (RPMI-8226) | cytotoxicity log GI50 (SR) | cytotoxicity log GI50 (HCT-116) | cytotoxicity log GI50 (HCT-15) | cytotoxicity log GI50 (SW 620) | cytotoxicity log GI50 (ACHN) | cytotoxicity log GI50 (BT-549) | cytotoxicity log GI50 (NCI-H522) | cytotoxicity log GI50 (MALME-3M) | cytotoxicity log GI50 (UACC-257) | cytotoxicity log GI50 (COLO-205) | cytotoxicity log GI50 (OVCAR-3) | cytotoxicity log GI50 (HOP-92) | cytotoxicity log GI50 (NCI-H23) | other results
1 | COc1cc(OC)cc(C(=O)NC2=C(Cl)C(=O)c3ccccc3C2=O)c1 [Compound 2h] | -6.26 M | -5.89 M | -6.82 M | -6.70 M | -7.04 M | -6.39 M | -6.31 M | -6.33 M | -6.35 M | -6.38 M | -6.24 M | -6.39 M | -5.81 M | -6.49 M |  |  |  |  |  |  | cytotoxicity against tumor cells (in words) (human tumor cell lines): similarly potent cytotoxic activity; cytotoxicity log GI50 (SK-MEL-28): -5.85 M; cytotoxicity log GI50 (KM 12): -5.92 M; cytotoxicity log GI50 (RXF-393): -6.28 M; cytotoxicity log GI50 (IGROV1): -5.86 M; cytotoxicity log GI50 (MCF7/ADR-RES): -5.83 M; cytotoxicity log GI50 (T-47D): -5.85 M; cytotoxicity log GI50 (PC-3): -6.24 M
2 | COc1ccc(C(=O)NC2=C(Cl)C(=O)c3ccccc3C2=O)cc1 [Compound 2g] | -6.20 M | -5.89 M | -6.12 M | -6.10 M | -6.35 M | -5.85 M | -6.02 M |  | -6.36 M | -6.37 M | -6.17 M | -6.44 M | -5.77 M | -6.42 M | -5.92 M | -5.79 M | -5.76 M | -5.79 M | -5.82 M |  | GI50 (human tumor cell lines; [1]): ~1 µM; cytotoxicity log GI50 (SK-MEL-28): -6.17 M; cytotoxicity log GI50 (U 251): -5.83 M; cytotoxicity log GI50 (KM 12): -5.82 M; cytotoxicity log GI50 (RXF-393): -6.23 M; cytotoxicity log GI50 (MCF7/ADR-RES): -5.85 M; cytotoxicity log GI50 (T-47D): -5.90 M; cytotoxicity log GI50 (PC-3): -5.90 M; cytotoxicity log GI50 (NCI-H266): -5.87 M
3 | O=C(NC1=C(Cl)C(=O)c2ccccc2C1=O)c1ccccc1 [Compound 2e, 2-Benzoylamino-3-chloro-1,4-naphthoquinone] |  |  | -4.62 M |  |  | -4.66 M |  |  | -4.76 M | -4.60 M | -4.76 M | -4.68 M | -4.70 M | -4.62 M | -4.77 M |  | -4.81 M | -4.72 M | -4.60 M | -4.62 M | GI50 (human tumor cell lines; [1]): 10 to 100 µM; cytotoxicity log GI50 (MOLT-4): -4.70 M; cytotoxicity log GI50 (RXF-393): -4.72 M; cytotoxicity log GI50 (TK-10): -4.64 M; cytotoxicity log GI50 (IGROV1): -4.66 M; cytotoxicity log GI50 (MCF-7): -4.72 M; cytotoxicity log GI50 (MCF7/ADR-RES): -4.73 M; cytotoxicity log GI50 (MDA-MB-435): -4.72 M; cytotoxicity log GI50 (MDA-N): -5.30 M; cytotoxicity log GI50 (T-47D): -4.66 M; cytotoxicity log GI50 (PC-3): -4.60 M; cytotoxicity log GI50 (NCI-H266): -4.61 M
4 | CC(=O)NC1=C(NCCN(C)C)C(=O)c2ccccc2C1=O [Compound 39] |  | -5.14 M | -4.98 M |  | -5.01 M | -4.91 M |  |  | -5.08 M | -5.02 M |  |  |  | -4.99 M | -5.12 M | -5.03 M | -5.00 M |  |  | -4.94 M | cytotoxicity log GI50 (LOX1MVI): -4.90 M; cytotoxicity log GI50 (M19-MEL): -5.12 M; cytotoxicity log GI50 (SF-539): -4.93 M; cytotoxicity log GI50 (U 251): -4.99 M; cytotoxicity log GI50 (SN12C): -4.98 M; cytotoxicity log GI50 (OVCAR-4): -5.05 M; cytotoxicity log GI50 (NCI-H460): -4.89 M
5 | COc1ccc(-n2c(CCCC(=O)O)nc3c2C(=O)c2ccccc2C3=O)cc1 [Compound 59] | -4.81 M |  | -4.63 M | -4.44 M | -4.51 M |  | -4.44 M |  | -4.44 M | -4.35 M |  |  | -5.06 M | -4.59 M | -4.82 M | -4.56 M | -4.43 M | -4.48 M | -4.69 M | -4.36 M | cytotoxicity log GI50 (MCF-7): -4.49 M; cytotoxicity log GI50 (MDA-MB-435): -4.58 M; cytotoxicity log GI50 (MDA-N): -4.50 M
6 | CCn1c(CCl)nc2c1C(=O)c1ccccc1C2=O [Compound 22] |  | -6.38 M | -5.89 M | -6.76 M |  |  |  | -6.40 M |  |  |  |  |  | -6.53 M | -5.98 M |  |  |  |  |  | GI50 (human tumor cell lines; cancer cells, printed as GI50, log scale values, read-out: GI50 values): 0.158 to 1 µM; cytotoxicity against tumor cells (in words) (human tumor cell lines): highly active against many of the cancer cell types tested; cytotoxicity log GI50 (MOLT-4): -6.45 M; cytotoxicity log GI50 (SK-OV-3): -6.29 M; cytotoxicity log GI50 (NCI-H266): -6.65 M
7 | Cc1nc2c(n1C(C)(C)C)C(=O)c1ccccc1C2=O [Compound 8] |  | -4.41 M | -4.35 M |  | -4.34 M | -4.30 M |  | -4.35 M |  |  |  | -4.31 M |  | -4.36 M | -4.35 M | -4.37 M |  | -4.41 M | -5.03 M | -4.42 M | cytotoxicity log GI50 (LOX1MVI): -4.38 M; cytotoxicity log GI50 (M19-MEL): -4.61 M; cytotoxicity log GI50 (MOLT-4): -4.31 M; cytotoxicity log GI50 (SNB-75): -4.50 M; cytotoxicity log GI50 (XF-498): -4.36 M; cytotoxicity log GI50 (HT 29): -4.36 M; cytotoxicity log GI50 (SN12C): -4.30 M; cytotoxicity log GI50 (UO-31): -4.43 M; cytotoxicity log GI50 (NCI-H460): -4.44 M
